The supplement of paper PMC11208160

Test: recombinant UMI read abundance after kanamycin selection (control-corrected) (log10(CPM+1)); higher = more efficient recombination; extreme values may be limits of the assay; sequences stand for … in AGTGCAGAGAAAATCGGCCAGTTTTCTCTGCCTGCAGTCCGCATGCCGTGGGACCCCTTGGGTTCTAACCTGTTGCCTAGATTTATGCAGCGGACTGCCTTTCTCCCAAAGTGATAAACCGG…AGGTTGGTTTCACT; site = the 11-nt donor
Outline: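 Sequencing read counts were converted to CPM, averaged over two replicates and scaled by control-derived factors. Results are given as log10(CPM+1). The reads covered the donor–target junction of recombinant UMIs from a pooled Escherichia coli screen of donor and donor-binding-loop pairs for the IS621 bridge recombinase.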
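Also: IS621 bridge recombinase in Escherichia coli cells against a fixed T5 target plasmid.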

Sequence	recombinant UMI read abundance (log10)
AGGATCCCATGGACCGGTTTTCCCGGTAATCCGTATTTGTG (site AGGTTCCCTCA)	0.051
AGGATGACATGGACCGGTTTTCCCGGTAATCCGTATTTGCA (site AGGAAGACTTG)	2.34
AGGATGACATGGACCGGTTTTCCCGGTAATCCGTATTTGCA (site AGGACGACTTG)	1.16
AGGATGACATGGACCGGTTTTCCCGGTAATCCGTATTTGCA (site AGGAGGACTTG)	1.19
AGGATGACATGGACCGGTTTTCCCGGTAATCCGTATTTGCA (site AGGATGACTTG)	2.76
AGGATGCCATGGACCGGTTTTCCCGGTAATCCGTATTTGCT (site AGGATGCCTAG)	0.721
AGGATTACATGGACCGGTTTTCCCGGTAATCCGTATTTGAC (site AGGAATACTGT)	0
AGGATTACATGGACCGGTTTTCCCGGTAATCCGTATTTGAC (site AGGACTACTGT)	0.662
AGGATTACATGGACCGGTTTTCCCGGTAATCCGTATTTGAC (site AGGAGTACTGT)	0
AGGATTACATGGACCGGTTTTCCCGGTAATCCGTATTTGAC (site AGGATTACTGT)	1.4
AGGCAGACATGGACCGGTTTTCCCGGTAATCCGTATTTGGA (site AGGAAGACTTG)	0
AGGCAGACATGGACCGGTTTTCCCGGTAATCCGTATTTGGA (site AGGCAGACTTC)	1.21
AGGCGCGCATGGACCGGTTTTCCCGGTAATCCGTATTTGGA (site AGGCGCGCTTC)	0.849
AGGCTGTCATGGACCGGTTTTCCCGGTAATCCGTATTTGTT (site AGGCTGTCTAA)	1.64
AGGGACACATGGACCGGTTTTCCCGGTAATCCGTATTTGGC (site AGGGACACTGC)	2.93
AGGGAGTCATGGACCGGTTTTCCCGGTAATCCGTATTTGCA (site AGGAAGACTTG)	0.426
AGGGAGTCATGGACCGGTTTTCCCGGTAATCCGTATTTGCA (site AGGGAGTCTTG)	2.79
AGGGAGTCATGGACCGGTTTTCCCGGTAATCCGTATTTGCC (site AGGGAGTCTGG)	2.15
AGGGAGTCATGGACCGGTTTTCCCGGTAATCCGTATTTGCC (site CGGGAGTCTGG)	0.995
AGGGAGTCATGGACCGGTTTTCCCGGTAATCCGTATTTGCC (site GGGGAGTCTGG)	0
AGGGAGTCATGGACCGGTTTTCCCGGTAATCCGTATTTGCC (site TGGGAGTCTGG)	0.994
AGGGCACCATGGACCGGTTTTCCCGGTAATCCGTATTTGCA (site AGGGCACCTTG)	0.655
AGGGCACCATGGACCGGTTTTCCCGGTAATCCGTATTTGCA (site CGGGCACCTTG)	0
AGGGCACCATGGACCGGTTTTCCCGGTAATCCGTATTTGCA (site GGGGCACCTTG)	0
AGGGCACCATGGACCGGTTTTCCCGGTAATCCGTATTTGCA (site TGGGCACCTTG)	0

Sequence	recombinant UMI read abundance (log10)
AGGGCCTCATGGACCGGTTTTCCCGGTAATCCGTATTTGCT (site AGGGCCTCTAG)	2.95
AGGGGCGCATGGACCGGTTTTCCCGGTAATCCGTATTTGCC (site AGGGGCGCTGG)	3.25
AGGGGTCCATGGACCGGTTTTCCCGGTAATCCGTATTTGCT (site AGGGGTCCTAG)	0.704
AGGGTCACATGGACCGGTTTTCCCGGTAATCCGTATTTGAG (site AGGGTCACTCT)	1.39
AGGGTCCCATGGACCGGTTTTCCCGGTAATCCGTATTTGTG (site AGGATCCCTCA)	0.239
AGGGTCCCATGGACCGGTTTTCCCGGTAATCCGTATTTGTG (site AGGCTCCCTCA)	0.0118
AGGGTCCCATGGACCGGTTTTCCCGGTAATCCGTATTTGTG (site AGGGTCCCTCA)	0.304
AGGGTCCCATGGACCGGTTTTCCCGGTAATCCGTATTTGTG (site AGGTTCCCTCA)	0.0182
AGGGTGCCATGGACCGGTTTTCCCGGTAATCCGTATTTGGG (site AGGGTGCCTCC)	0.0268
AGGGTTCCATGGACCGGTTTTCCCGGTAATCCGTATTTGGT (site AGGGTTCCTAC)	0.793
AGGGTTTCATGGACCGGTTTTCCCGGTAATCCGTATTTGAA (site AGGGTTTCTTT)	2.46
AGGTACTCATGGACCGGTTTTCCCGGTAATCCGTATTTGAC (site AGGTACTCTGT)	3.57
AGGTAGACATGGACCGGTTTTCCCGGTAATCCGTATTTGAA (site AGGAAGACTTG)	0
AGGTAGACATGGACCGGTTTTCCCGGTAATCCGTATTTGAA (site AGGTAGACTTT)	1.89
AGGTCAGCATGGACCGGTTTTCCCGGTAATCCGTATTTGGG (site AGATCAGCTCC)	0.0289
AGGTCAGCATGGACCGGTTTTCCCGGTAATCCGTATTTGGG (site AGCTCAGCTCC)	0.0149
AGGTCAGCATGGACCGGTTTTCCCGGTAATCCGTATTTGGG (site AGGTCAGCTCC)	0.00675
AGGTCAGCATGGACCGGTTTTCCCGGTAATCCGTATTTGGG (site AGTTCAGCTCC)	0.0281
AGGTCATCATGGACCGGTTTTCCCGGTAATCCGTATTTGCT (site AGGTCATCTAG)	1.48
AGGTCATCATGGACCGGTTTTCCCGGTAATCCGTATTTGCT (site CGATCATCTAG)	0
AGGTCGGCATGGACCGGTTTTCCCGGTAATCCGTATTTGGC (site AGGTCGGCTGC)	2.13
AGGTTCACATGGACCGGTTTTCCCGGTAATCCGTATTTGTG (site AGGTTCACTCA)	0.0184
AGGTTCACATGGACCGGTTTTCCCGGTAATCCGTATTTGTG (site AGGTTCCCTCA)	0
AGGTTCACATGGACCGGTTTTCCCGGTAATCCGTATTTGTG (site AGGTTCGCTCA)	0.00639
AGGTTCACATGGACCGGTTTTCCCGGTAATCCGTATTTGTG (site AGGTTCTCTCA)	0.00699

Sequence	recombinant UMI read abundance (log10)
AGGTTCCCATGGACCGGTTTTCCCGGTAATCCGTATTTGCG (site AGGTTCCCTCA)	0.0159
AGGTTCCCATGGACCGGTTTTCCCGGTAATCCGTATTTGCG (site AGGTTCCCTCC)	0.0204
AGGTTCCCATGGACCGGTTTTCCCGGTAATCCGTATTTGCG (site AGGTTCCCTCG)	0.236
AGGTTCCCATGGACCGGTTTTCCCGGTAATCCGTATTTGCG (site AGGTTCCCTCT)	0.00665
AGGTTCCCATGGACCGGTTTTCCCGGTAATCCGTATTTGGT (site AGGTTCCCTAC)	0.474
AGGTTCTCATGGACCGGTTTTCCCGGTAATCCGTATTTGTG (site AGGTTCACTCA)	0.205
AGGTTCTCATGGACCGGTTTTCCCGGTAATCCGTATTTGTG (site AGGTTCCCTCA)	0.22
AGGTTCTCATGGACCGGTTTTCCCGGTAATCCGTATTTGTG (site AGGTTCGCTCA)	0.0171
AGGTTCTCATGGACCGGTTTTCCCGGTAATCCGTATTTGTG (site AGGTTCTCTCA)	2.32
AGGTTTCCATGGACCGGTTTTCCCGGTAATCCGTATTTGTG (site AGGTTACCTCA)	0.0337
AGGTTTCCATGGACCGGTTTTCCCGGTAATCCGTATTTGTG (site AGGTTCCCTCA)	0.192
AGGTTTCCATGGACCGGTTTTCCCGGTAATCCGTATTTGTG (site AGGTTGCCTCA)	0.00446
AGGTTTCCATGGACCGGTTTTCCCGGTAATCCGTATTTGTG (site AGGTTTCCTCA)	0.271
AGTAACGCATGGACCGGTTTTCCCGGTAATCCGTATTTGGG (site AGTAACGCTCC)	0.161
AGTAAGACATGGACCGGTTTTCCCGGTAATCCGTATTTGAG (site AGTAAGACTCT)	1.72
AGTAAGACATGGACCGGTTTTCCCGGTAATCCGTATTTGCA (site AGAAAGACTTG)	1.66
AGTAAGACATGGACCGGTTTTCCCGGTAATCCGTATTTGCA (site AGCAAGACTTG)	2.39
AGTAAGACATGGACCGGTTTTCCCGGTAATCCGTATTTGCA (site AGGAAGACTTG)	1.31
AGTAAGACATGGACCGGTTTTCCCGGTAATCCGTATTTGCA (site AGTAAGACTTG)	2.57
AGTAAGACATGGACCGGTTTTCCCGGTAATCCGTATTTGCC (site AGGAAGACTTG)	0.00684
AGTAAGACATGGACCGGTTTTCCCGGTAATCCGTATTTGCC (site AGTAAGACTGG)	2.13
AGTAATCCATGGACCGGTTTTCCCGGTAATCCGTATTTGGT (site AGTAATCCTAC)	0.00506
AGTACAGCATGGACCGGTTTTCCCGGTAATCCGTATTTGCC (site AGTACAGCTGG)	2.27
AGTACTACATGGACCGGTTTTCCCGGTAATCCGTATTTGAC (site AGAACTACTGT)	0.731
AGTACTACATGGACCGGTTTTCCCGGTAATCCGTATTTGAC (site AGCACTACTGT)	0
